The values below come from EP4310070A1, “USE OF TRANS AMANTADINE DERIVATIVE OR SALT THEREOF” (Chengdu Shibeikang Biomedical Technology Co., Ltd., priority 2021, dated 2022).

Experiment [1] concerns expectoration amount by rat capillary tube expectoration. As to the kind of experiment: rat capillary sputum excretion test. The class given is in vivo, SD rats. Conditions: length of liquid in capillary tube within 90 minutes, 15 mg/kg in terms of free base via tail vein, 30 minutes after administration, n=10, vehicle control 22.7±4.41. How it is done:
180-220g SD rats of both sexes were used and divided into random groups, with 10 rats in each group, namely a vehicle control group, a Formula I compound group (15 mg/kg, in terms of free base), a Formula V compound group (15 mg/kg, in terms of free base), a Comparative Example group (15 mg/kg, in terms of free base) and ambroxol hydrochloride (15 mg/kg, in terms of free base). The rats were fasted and restrained from water for 12 hours before testing the amount of sputum excretion, and administered the respective medicaments via the tail vein (dissolved in normal saline by adjusting pH or directly dissolved in normal saline). 30 minutes after the administration, they were anesthetized by intraperitoneally injecting 1g/kg of a urethane solution in saline, fixed in supine position, and the trachea was separated after cutting through neck skin. A small hole was pierced by using a syringe needle between the two cartilage rings on the lower edge of the thyroid cartilage, and a capillary tube (with an inner diameter of 0.8mm, and a length of 10cm) was inserted centripetally into the trachea. Sputum was collected while adjusting the angle between the capillary tube and the trachea, and the total number of the length of liquids in the capillary tube (mm) was used to evaluate the expectoration effect. The amount of expectoration of the rats within 90 minutes was recorded. Here, the medicament used for the Comparative Example group was the 4-[(2-amino-3,5-dibromobenzyl)amino]adamantan-1-ol hydrochloride (racemic) prepared in Comparative Example 1. Table 4. Results of the effect on the expectoration amount by rat capillary tube expectoration

The subject of experiment [2] is ammonia-induced coughing response in mice. The experiment in a line: cough response of mice induced by ammonia water. The class given is in vivo, KM mice. Conditions: for reduction of the number of coughs: compared with the model control group (P<0.05 or P<0.01), 15 mg/kg free base i.v.; for Number of coughs (times): within 3 minutes after concentrated ammonia, 15 mg/kg in terms of free base i.v., 30 minutes after administration, x ± s, n=10, model control 41.7±8.76. As to the method:
50 KM mice, weighing 18-22g, of both sexes were used and randomly divided into 5 groups, a model control group, a Formula I compound group (15 mg/kg, in terms of free base), a Formula V compound group (15 mg/kg, in terms of free base), a Comparative Example group (15 mg/kg, in terms of free base), and an ambroxol hydrochloride group (15 mg/kg, in terms of free base), 10 animals in each group, and were administered intravenously (dissolved in normal saline by adjusting pH or directly dissolved in normal saline). 30 minutes after the administration, the mice were put in an inverted beaker with a volume of 500ml and a cotton ball inside. Timing was started once 0.2ml of concentrated ammonia/mouse was added onto the cotton ball. The number of coughs of each animal within 3 minutes was observed and recorded. Here, the medicament used for the Comparative Example group was the 4-[(2-amino-3,5-dibromobenzyl)amino]adamantan-1-ol hydrochloride (racemic) prepared in Comparative Example 1. Table 3. Effect on ammonia-induced coughing response in mice (x ± s, n=10)

In experiment [3] the test system is tracheal phenol red secretion in mice. As to the kind of experiment: phenol red expectoration test in mice. Format: in vivo. The following applies: colorimetric measurement at 546nm; 30 mg/kg in terms of free base via tail vein 2 times in a row; x ± s, n=12; control 0.095±0.022. How it is done:
Experimental method: 60 mice of both sexes were used and randomly divided into a control (normal saline) group, a Formula I compound group (30 mg/kg, in terms of free base), a Formula V compound group (30 mg/kg, in terms of free base), a Comparative Example group (30 mg/kg, in terms of free base) and ambroxol hydrochloride (30 mg/kg, in terms of free base), 12 rats in each group; the respective medicaments were administered via the tail vein (dissolved in normal saline by adjusting pH or directly dissolved in normal saline) 2 times in a row. 15 minutes after the last administration to the mice, a 5% phenol red solution in normal saline (0.5g/kg) was subcutaneously injected. After 30 minutes, the mice were sacrificed and a section of the trachea was cut from below the thyroid cartilage to the trachea branch. The section was placed in a test tube containing 1 mL of normal saline, shaken and soaked for 30 minutes, and then centrifuged for 10 minutes (3000 r/min). The supernatant was transferred to another test tube, 0.1 mL of 1M NaOH solution was added, and shaken uniformly for a colorimetric measurement at 546nm. The effects of each group on the tracheal phenol red secretion in mice were statistically compared, and the experimental results obtained are shown in Table 5 below. Here, the medicament used for the Comparative Example group was the 4-[(2-amino-3,5-dibromobenzyl)amino]adamantan-1-ol hydrochloride (racemic) prepared in Comparative Example 1. Table 5. Effects on tracheal phenol red secretion in mice (x ± s)

For experiment [4], the system named is acute lung injury in mice induced by oleic acid. As to the kind of experiment: acute lung injury test in mouse (oleic acid-induced, histological grading of lung pathology). Format: in vivo, KM mice. The following applies: for Overall lung pathology score: group sum, weighted (alveolar wall thickening x 1, inflammatory cell infiltration x 1, lung tissue necrosis x 3), 40 mg/kg free base i.v. once a day for 4 times, model control 81, normal control 21; for Alveolar wall thickening Level 0 / Inflammatory cell infiltration Level 0 / Lung tissue necrosis Level 0: number of mice (11 per group) at score 0 (No pathological change); for Alveolar wall thickening Level 0 / Inflammatory cell infiltration Level 0 / Lung tissue necrosis Level 0 / Alveolar wall thickening Level 1 / Inflammatory cell infiltration Level 1 / Lung tissue necrosis Level 1 / Alveolar wall thickening Level 2 / Inflammatory cell infiltration Level 2 / Lung tissue necrosis Level 2 / Alveolar wall thickening Level 3 / Inflammatory cell infiltration Level 3 / Lung tissue necrosis Level 3 / Alveolar wall thickening Level 4 / Inflammatory cell infiltration Level 4 / Lung tissue necrosis Level 4: 40 mg/kg in terms of free base, intravenously once a day for 4 times, oleic acid 300 mg/kg i.v.; for Alveolar wall thickening Level 1 / Inflammatory cell infiltration Level 1 / Lung tissue necrosis Level 1: number of mice (11 per group) at score 1 (Occasional); for Alveolar wall thickening Level 2 / Inflammatory cell infiltration Level 2 / Lung tissue necrosis Level 2: number of mice (11 per group) at score 2 (Mild); for Alveolar wall thickening Level 3 / Inflammatory cell infiltration Level 3 / Lung tissue necrosis Level 3: number of mice (11 per group) at score 3 (Moderate); for Alveolar wall thickening Level 4 / Inflammatory cell infiltration Level 4 / Lung tissue necrosis Level 4: number of mice (11 per group) at score 4 (Severe); for protective effect against acute lung injury in mice induced by oleic acid: compared with the model control group (P<0.05 or P<0.01), 40 mg/kg free base i.v. As to the method:
KM mice, weighing 18-22g, with all 66 being males, were used and randomly grouped into a normal control group, a model control group, a Formula I compound group (40 mg/kg, in terms of free base), a Formula V compound group (40 mg/kg, in terms of free base), a Comparative Example group (40 mg/kg, in terms of free base), and an ambroxol hydrochloride group (40 mg/kg, in terms of free base), 11 animals in each group, and each group was administered intravenously (dissolved in normal saline by adjusting pH or directly dissolved in normal saline) once a day for 4 times, while the model control group and the normal control group were given an equivalent amount of normal saline. 30 minutes after the last administration, except for the normal control group, all other mice were administered 300 mg/kg oleic acid intravenously (prepared into the desired concentration with sterile saline containing 0.1% […] immediately before use), and the vehicle control group was given an equivalent volume of 0.1% BSA saline. The mice were sacrificed 4 hours after the last administration, and the right lobes of the lungs were removed and fixed in a 10% formaldehyde solution. After dehydration, embedding in paraffin, dissection, and staining with HE, they were observed under a microscope for pathological changes of the lung tissues. Here, the medicament used for the Comparative Example group was the 4-[(2-amino-3,5-dibromobenzyl)amino]adamantan-1-ol hydrochloride (racemic) prepared in Comparative Example 1. Table 1. Criteria for histological grading of lung injury
The above indicators are multiplied by different weighting numbers depending on the significance of the pathology (alveolar wall thickening × 1, inflammatory cell infiltration × 1, lung tissue necrosis × 3), and finally added up to obtain an overall lung pathology score. Table 2. Test results of lung pathologies of each group

Structures can show the parent of a compound that is named as a salt. Marks after values point to notes of the source that are not given here.

For the compound `Nc1c(Br)cc(Br)cc1CN[C@H]1CC[C@H](O)CC1` [Ambroxol hydrochloride], the “Expectoration amount in 90min (mm)” value in experiment [1] was 30.1±4.95 mm. For the same compound, in experiment [2], the “reduction of the number of coughs” value is reported as “significantly reduce the number of coughs” and the “Number of coughs (times)” value is recorded as 32.7±8.55 times. Also, in experiment [3], the “Phenol red secretion (OD number)” value came out at 0.135±0.023 OD number. For the same compound, in experiment [4], the “Overall lung pathology score” value was 54, the “Alveolar wall thickening Level 0” value is on record as 2, the “Inflammatory cell infiltration Level 0” value is listed as 0 and the “Lung tissue necrosis Level 0” value is on record as 6. Besides, in experiment [4], the “Alveolar wall thickening Level 1” value is 4, the “Inflammatory cell infiltration Level 1” value is given as 4, the “Lung tissue necrosis Level 1” value was found to be 4 and the “Alveolar wall thickening Level 2” value is recorded as 4. Also, in experiment [4], the “Inflammatory cell infiltration Level 2” value worked out at 7, the “Lung tissue necrosis Level 2” value is 0, the “Alveolar wall thickening Level 3” value worked out at 1 and the “Inflammatory cell infiltration Level 3” value is 0. For the same compound, in experiment [4], the “Lung tissue necrosis Level 3” value was 1, the “Alveolar wall thickening Level 4” value is recorded as 0, the “Inflammatory cell infiltration Level 4” value is given as 0 and the “Lung tissue necrosis Level 4” value is 0.

`Cl.Nc1c(Br)cc(Br)cc1CNC1C2CC3CC1CC(O)(C3)C2` (racemic) [Compound of Comparative Example, 4-[(2-amino-3,5-dibromobenzyl)amino]adamantan-1-ol hydrochloride (racemic)]: in experiment [1], the “Expectoration amount in 90min (mm)” value is given as 39.9±5.43 mm. In addition, in experiment [2], the “reduction of the number of coughs” value is “significantly reduce the number of coughs” and the “Number of coughs (times)” value is 25.7±6.40 times. The “Phenol red secretion (OD number)” value in experiment [3] is listed as 0.223±0.058 OD number. Besides, in experiment [4], the “protective effect against acute lung injury in mice induced by oleic acid” value is “definite protective effect”, the “Overall lung pathology score” value is given as 44*, the “Alveolar wall thickening Level 0” value amounted to 1 and the “Inflammatory cell infiltration Level 0” value stood at 1. In addition, in experiment [4], the “Lung tissue necrosis Level 0” value is 8, the “Alveolar wall thickening Level 1” value came to 2, the “Inflammatory cell infiltration Level 1” value was found to be 6 and the “Lung tissue necrosis Level 1” value worked out at 2. Further, in experiment [4], the “Alveolar wall thickening Level 2” value came out at 8, the “Inflammatory cell infiltration Level 2” value stood at 4, the “Lung tissue necrosis Level 2” value amounted to 1 and the “Alveolar wall thickening Level 3” value was determined as 0. Also, in experiment [4], the “Inflammatory cell infiltration Level 3” value was determined as 0, the “Lung tissue necrosis Level 3” value was 0, the “Alveolar wall thickening Level 4” value is reported as 0 and the “Inflammatory cell infiltration Level 4” value is on record as 0. Besides, the “Lung tissue necrosis Level 4” value in experiment [4] is listed as 0.

As for `Nc1c(Br)cc(Br)cc1CN[C@@H]1[C@@H]2C[C@@H]3C[C@H]1C[C@@](O)(C3)C2` [Compound of Formula I, trans-4-[(2-amino-3,5-dibromobenzyl)amino]adamantan-1-ol], the “Expectoration amount in 90min (mm)” value in experiment [1] (15 mg/kg) came out at 45.9±6.79 mm. Further, the “reduction of the number of coughs” value in experiment [2] is recorded as “significantly reduce the number of coughs”. Besides, in experiment [2] (15 mg/kg), the “Number of coughs (times)” value turned out to be 19.2±5.98 times. Also, in experiment [3], the “Phenol red secretion (OD number)” value is on record as 0.279±0.063 OD number. In experiment [4], the “protective effect against acute lung injury in mice induced by oleic acid” value is “definite protective effect”, the “Alveolar wall thickening Level 0” value was 1, the “Inflammatory cell infiltration Level 0” value is on record as 3 and the “Lung tissue necrosis Level 0” value was 11. Besides, in experiment [4], the “Alveolar wall thickening Level 1” value turned out to be 7, the “Inflammatory cell infiltration Level 1” value came to 7, the “Lung tissue necrosis Level 1” value turned out to be 0 and the “Alveolar wall thickening Level 2” value is reported as 3. In experiment [4], the “Inflammatory cell infiltration Level 2” value amounted to 1, the “Lung tissue necrosis Level 2” value is recorded as 0, the “Alveolar wall thickening Level 3” value was determined as 1 and the “Inflammatory cell infiltration Level 3” value turned out to be 0. In experiment [4], the “Lung tissue necrosis Level 3” value was 0, the “Alveolar wall thickening Level 4” value is recorded as 0, the “Inflammatory cell infiltration Level 4” value amounted to 0 and the “Lung tissue necrosis Level 4” value came out at 0. For the same compound, in experiment [4] (40 mg/kg), the “Overall lung pathology score” value is reported as 23^**▲.
